Experimental data taken from patent US10350168B2, “Dermal delivery compositions comprising active agent-calcium phosphate particle complexes and methods of using the same” (Laboratory Skin Care, Inc., priority 2009, dated 2019).
“And” between values parts separate entries of the source, which are not always exact repeats. Equal values may be shown once.

How the values were obtained:
[1] = Optimum pH for producing active agent-calcium phosphate complexes; type: physicochemical
Source text: In the following tables, the specific solvent systems are examples of solvent systems that may be used.

[2] = Adapalene saturated solutions in ethanol and DMSO; type: physicochemical
Procedure: (§1) • Calcium phosphate particles • Adapalene, Sekhsaria Chemicals Limited, India • DMSO, Fisher Scientific, Product No. D159-4 • Ethanol, Fisher Scientific, Product No. AC61511-0010 Methods: • i. […] The suspensions were mixed for 30 min, and centrifuged at 2000×g for 10 min in a bench top centrifuge. • iv. The absorbance of supernatants were measured at 319 nm (the detection wavelength for Adapalene) by UV spectrophotometer. • v. […]

[3] = Influence of solvent on binding of Adapalene to calcium phosphate particles (UV 319 nm); type: physicochemical
Procedure: as §1

[4] = Stability (activity) of ascorbic acid at 50° C. with and without calcium phosphate particles; type: physicochemical; details: for activity of ascorbic acid, 2 um: bound to 2 μm calcium phosphate particles; for activity of ascorbic acid, Control: without calcium phosphate particles
Procedure: 11.9 mg of ascorbic acid was dissolved in 30 ml of water. 2 g of 2 μm calcium phosphate particles were suspended in 19.5 ml of water and the pH was adjusted to pH 7.14 with HCl. 0.5 ml of ascorbic acid solution (0.40 mg/ml) was mixed in the suspension of calcium phosphate particles, which reduced the pH to 7.05. The suspension (pH 7.05) of calcium phosphate particles including 10 μg/ml of ascorbic acid was incubated at 50° C. for 0.5 to 5 hours. The heat-denaturation of ascorbic acid was terminated by cooling the suspension in an ice bath for 15 minutes. In order to release bound ascorbic acid from calcium phosphate particles to measure the stabilization effect, the pH of each suspension was adjusted to pH 5 with HCl and centrifuged at 3,000 rpm for 10 minutes. The supernatant obtained was measured at 265 nm. As a control, a 10 μg/ml of ascorbic acid solution was also incubated and measured by the same procedures without calcium phosphate particles. The activity of ascorbic acid was calculated by the following formula: The activity of ascorbic acid (%)=(A265nm of the supernatant after incubation/A265nm of the ascorbic acid before incubation)×100 The same procedures were repeated with 10 μm calcium phosphate particles. b. Results

[5] = Tape-stripping analysis of topical application of active-calcium phosphate complexes; type: in vivo; details: human forearm, ten tape strips
Procedure: The purpose of this study was to detect the distribution of actives in the stratum corneum following topical application of the active-calcium phosphate particles • Method: The distribution of STAY C50 within the stratum corneum was assessed by serial tape stripping of the skin to which a STAY C50-calcium phosphate particle formulation was applied. An application site on the forearm of a human subject was marked and 200 μl of the formulation spread by spatula. The site was allowed to dry for 10 minutes and then followed by ten pre-weighed tape stripping using strips of (3 in^2) applied to the application site. STAY C50 was extracted from the tape strips by sonicating the samples in water for 30 minutes and analyzing the samples by HPLC. […] An application site on the forearm of a human subject was marked and 200 μl of the formulation spread by spatula. The site was allowed to dry for 10 minutes and then followed by ten pre-weighed tape stripping using strips of (3 in^2) applied to the application site. Lysozyme was extracted from the tape strips by sonicating the samples in water for 30 minutes and analyzing the samples by HPLC. Lysozyme was detected to a depth of 6 tape strips (FIG. 10). 5. Controlled Slow Release of Active Agents by Franz Cell • Purpose: The purpose of this study was to detect riboflavin from riboflavin attached to calcium phosphate particles. […]

[6] = Influence of pH on binding of Salicylic acid to calcium phosphate particles (UV 297 nm); type: physicochemical
Procedure: • Calcium phosphate particles • Salicylic acid, Fisher Scientific, Part No. A277-500 Methods: • i. 23.2 mg of Salicylic acid was dissolved in 1 ml of ethanol. • ii. 4 g of calcium phosphate particles were suspended in 39.8 ml of water and the pH was adjusted close to the targeted pH with HCl. • iii. 0.2 ml of Salicylic acid solution (23.2 mg/ml) was mixed in the suspension of calcium phosphate particles. • iv. The pH was adjusted to each of the target pH values (11.36, 8.34, 7.47, 7.07, 5.99) with HCl. • v. At each pH, a 4.8 ml sample was taken from the suspension. All the samples were centrifuged separately at 2000×g for 10 min. • vi. The absorbance of supernatant was measured at 297 nm (the detection wavelength for Salicylic acid) by UV spectrophotometer. • vii. […]

[7] = Sodium Tocopheryl Phosphate binding to and release from calcium phosphate particles (UV 286 nm); type: physicochemical
Procedure: • Calcium phosphate particles • Sodium Tocopheryl Phosphate (TPNa), Showa Denko KK • Ethanol, Fisher Scientific, Product No. AC615090020 Methods: • i. 20 mg of TPNa was dissolved in 40 ml of water by gently mixing (0.5 mg/ml). • ii. 3 g of calcium phosphate particles was mixed with 30 ml of TPNa solution at 0.5 mg/ml, and mixed for 30 min. • iii. The binding suspension was centrifuged at 2000×g for 10 min. The supernatant was transferred to new tube, and centrifuge again at 2000×g for 10 min to clarify. The final supernatant was analyzed with an UV spectrophotometer at 286 nm to quantitate free TPNa and calculate the binding. Approximately 100% of TPNa in the binding suspension was attached to calcium phosphate particles. • iv. The pellet of TPNa calcium phosphate complex was re-suspended in 60% ethanol to release the bound TPNa. • v. The release suspension in 60% ethanol was centrifuged at 2000×g for 10 min. The supernatant was analyzed with an UV spectrophotometer at 286 nm to quantitate free TPNa released.

[8] = Argireline binding to calcium phosphate particles with or without sodium lauryl sulfate pretreatment; type: physicochemical
Procedure: • Argireline to calcium phosphate particles was pretreated with sodium lauryl sulfate Materials: • Calcium phosphate particles • Argireline, (Acetyl Hexapeptide-8), Lipotec S.A. • Sodium lauryl sulfate (SLS), Colonial Chemical, Inc. Methods: • i. Argireline was dissolved in water as a 10 mg/ml solution. • ii. Calcium phosphate particles were mixed with 10 ml of 0.1% SLS for 5 min. […] The pellet was re-suspended in 20 ml water, centrifuged at 2000×g for 10 min, and the washing supernatant was discarded. The washing step was repeated twice. The water contained in the pellet was determined. The final pellet was used in the binding study. • iii. Calcium phosphate particles (SLS treated or no SLS treatment) were mixed with water. HCl (or NaOH) was added to adjust the pH of Calcium phosphate particles suspension to targeted pH including neutral and pH˜10. • iv. Argireline stock at 10 mg/ml was added to each binding suspensions to be a final concentration of 0.5 mg/ml. After the suspension was mixed for 30 min, the final pH was measured. • v. The binding suspensions were centrifuged at 2000×g for 10 min in the bench top centrifuge. The supernatants were analyzed with Refractive Index detector connected to the Shimadzu HPLC 20A system to quantify the free Argireline in the solution. A size-exclusion HPLC method was developed to quantify Argireline in the supernatants of the binding mixtures. […] The mobile phase was 100% water, and eluted at a rate of 1 ml/min. The eluent was monitored at 205 nm or by a refractive index detector (Shimadzu, Model No. RID-10A). Argireline was observed as a major peak in the chromatogram with retention time of about 14 min. The quantification of Argireline was achieved by external standard calibration. • vi. The Argireline bound was then calculated by subtracting the amount of Argireline detected in the supernatant from the total initial amount in the binding suspension.

[9] = pH dependent release of lysozyme from lysozyme calcium phosphate complexes; type: physicochemical; details: flow 1 mL/hr, 8 hours
Procedure: In the stratum corneum, the pH ranges from approximately 4.3 to 5.0 with pH […] with stratum corneum depth. To study calcium phosphate particle release active agent at conditions analogous to skin, two lysozyme calcium phosphate complexes were exposed to buffers of ph 4.8 (0.5 M sodium acetate) and 7.0 (10 mM Bis Tris) for 8 hours. The buffers flowed through the samples at a rate of 1 mL/hr and were collected hourly and analyzed for lysozyme release by monitoring the peak at 280 nm by UV spectrometer. An equivalent mass of lysozyme Calcium phosphate particles complex was vortexed in pH 4.8 buffer to estimate the total available lysozyme in the sample.

[10] = Lysozyme binding to calcium phosphate particles (UV 280 nm); type: physicochemical; details: pH 6.83
Procedure: • Calcium phosphate particles • Lysozyme, MP biomedicals LLC. Product No. ICN10083405 • Phosphoric acid, Fisher Scientific, Product No. A260500 Methods: • i. 364.7 mg of Lysozyme as dissolved in 18.01 ml of water (20.25 mg/ml). • ii. 0.8 g of calcium phosphate particles were mixed with 4 ml of water, and the pH of the suspension was adjusted to neutral with diluted phosphoric acid. • iii. 4 ml of Lysozyme solution (20.25 mg/ml) was added to the suspension of calcium phosphate particles to achieve a final concentration of 10.124 mg/ml, and a final volume of 8 ml. The final pH was measured. • iv. The suspension was mixed for 30 min, and centrifuged at 2000×g for 10 min in a bench top centrifuge. • v. The absorbance of supernatant was measured at 280 nm (the detection wavelength for Lysozyme) by UV spectrophotometer. • vi. […]

[11] = Franz cell transdermal delivery through pig skin; type: in vitro ADME; details: for penetration through skin (riboflavin metabolite in receptor fluid): 8 and 16 hours
Procedure: Controlled Slow Release of Active Agents by Franz Cell • Purpose: The purpose of this study was to detect riboflavin from riboflavin attached to calcium phosphate particles. Methods: • Circular 6 cm^2 discs of full-thickness pig skin were cut from a larger abdominal specimen. Fat was removed from the dermis-side by scissors and the skin was stored at −20° C. until use. The skin was affixed between the two compartments of the glass diffusion cell (Laboratory Glass Apparatus, Model #LG-1084-LPCT). This allowed an exposed skin area of 5 cm^2 over a receptor compartment volume of 4.5 ml. The diffusion cell was maintained at 37° C.
Penetration Conditions • Topical application intervals were 8 and 16 hrs. The cells were covered with parafilm and shielded from light by aluminum wrap. A receptor fluid of phosphate buffered saline (PBS) was spun at 60 rpm.
Applied Formulations • Riboflavin monophosphate-calcium phosphate particles were prepared to deliver 0.35-1.15 mg riboflavin (20-38% suspensions). • Riboflavin monophosphate in PBS was prepared at 1.5 mg/mL to deliver 0.3-0.45 mg riboflavin. • Formulations were applied by pipette in volumes of 50-100 μl. Riboflavin-calcium phosphate complex applications were allowed to air dry and then equal volume of 0.5 M sodium acetate buffer was pipetted onto the application site. […]
Sample Collection • The skin surface, while still retained in the diffusion cell, was washed twice with 1 mL PBS each time. The skin was removed from diffusion cell and dried and analyzed.
Sample Analysis • Washes and Receptor fluid: The approximate volume of the fluids was determined. […] The supernatant was then removed and analyzed by UV spectrometer. If the UV absorbance was saturated (over >2.0), the samples were diluted with water. The UV absorbance value at 370 nm was recorded. • Skin: The skin was minced and mixed with 5 ml of 10% trichloracetic acid solution. […] If the UV absorbance was saturated (over >2.0), samples were diluted with water. The maximum UV absorbance value at 370 nm was recorded.

Cc1c(C)c2c(c(C)c1OP(=O)([O-])OC1=C(O)[C@@H]([C@@H](O)CO)OC1=O)CC[C@@](C)(CCC[C@H](C)CCC[C@H](C)CCCC(C)C)O2.[K+] (racemic) [Sepivital, dl-a-tocopheryl 2 L ascorbyl phosphate]
Optimum pH ([1]; Loading Solvent Water): 7

COc1ccc(-c2ccc3cc(C(=O)O)ccc3c2)cc1C12CC3CC(CC(C3)C1)C2 [Adapalene]
Optimum pH ([1]; Loading Solvent DMSO): 7
Optimum pH ([1]; Loading Solvent Ethanol): 11 and 7
saturated solution concentration ([2]; in DMSO): 20.65 mg/mL
saturated solution concentration ([2]; in ethanol): 0.087 mg/mL
Binding capacity of Adapalene to calcium phosphate particles ([3]; in DMSO): 12.55 mg/g
Binding capacity of Adapalene to calcium phosphate particles ([3]; in ethanol): 0.78 mg/g

O=C1O[C@H]([C@@H](O)CO)C(O)=C1O [Ascorbic acid]
Optimum pH ([1]; Loading Solvent Water): >8.12
activity of ascorbic acid, 2 um ([4]; 0 hrs): 100%
activity of ascorbic acid, 2 um ([4]; 0.5 hrs): 85%
activity of ascorbic acid, 2 um ([4]; 2 hrs): 59%
activity of ascorbic acid, 2 um ([4]; 3 hrs): 48%
activity of ascorbic acid, 2 um ([4]; 5 hrs): 35%
activity of ascorbic acid, Control ([4]; 0 hrs): 100%
activity of ascorbic acid, Control ([4]; 0.5 hrs): 36%
activity of ascorbic acid, Control ([4]; 2 hrs): 18%
activity of ascorbic acid, Control ([4]; 5 hrs): 0%

Oc1ccc(C=Cc2cc(O)cc(O)c2)cc1 [Resveratrol]
Optimum pH ([1]; Loading Solvent Ethanol/water): 10

O=C1O[C@H]([C@@H](O)CO)C([O-])=C1OP(=O)([O-])[O-].[Na+].[Na+].[Na+] [STAY-C50, Sodium Ascorbyl Phosphate]
delivery depth in stratum corneum ([5]; STAY C50-calcium phosphate particle formulation): 10th layer of stratum corneum

O=C(O)c1ccccc1O [Salicylic acid]
Optimum pH ([1]; Loading Solvent Ethanol/water): 4.03-7.90
Salicylic acid Bound ([6]; pH 5.99): 0 µg/g
Salicylic acid Bound ([6]; pH 7.07): 23.8 µg/g
Salicylic acid Bound ([6]; pH 7.47): 97.5 µg/g
Salicylic acid Bound ([6]; pH 8.34): 660.4 µg/g
Salicylic acid Bound ([6]; pH 11.36): 1141.14 µg/g

Cc1c(C)c2c(c(C)c1OP(=O)([O-])[O-])CCC(C)(CCCC(C)CCCC(C)CCCC(C)C)O2.[Na+].[Na+] (stereo not shown) [TPNa, Sodium Tocopheryl Phosphate]
TPNa in the binding suspension attached to calcium phosphate particles ([7]; 0.5 mg/ml TPNa in water): Approximately 100%
integrity of released TPNa (UV spectroscopy) ([7]; released in 60% ethanol): identical to an unbound control

Acetyl Hexapeptide-8 [Argireline]
Optimum pH ([1]; Loading Solvent Water): 6.7-7.8 and 7.8 and 6.4
Argireline bound ([8]; No pretreatment, pH 7.39): 0.09 mg/g
Argireline bound ([8]; No pretreatment, pH 10.46): 0.05 mg/g
Argireline bound ([8]; SLS treated particles, pH 7.85): 1.19 mg/g
Argireline bound ([8]; SLS treated particles, pH 10.10): 2.15 mg/g

Hyaluronic acid Sodium salt
Optimum pH ([1]; Loading Solvent Water): 7

Lysozyme: Lysozyme, MP biomedicals LLC
lysozyme release from calcium phosphate particles ([9]; pH 4.8 (0.5 M sodium acetate)): most of the lysozyme releasing within the first hour
lysozyme release from calcium phosphate particles ([9]; pH 7.0 (10 mM Bis Tris)): no lysozyme is observed released
Lysozyme bound to calcium phosphate particles [10]: 6.8 mg/g
depth of detection ([5]; lysozyme-calcium phosphate particle formulation): 6 tape strips

Riboflavin monophosphate
release rate of the active versus aqueous solution ([11]; calcium phosphate particle complex): slower release of the active
penetration through skin (riboflavin metabolite in receptor fluid) ([11]; from aqueous solution (PBS)): penetrated through skin
penetration through skin (riboflavin metabolite in receptor fluid) ([11]; from calcium phosphate particle complex): penetrated through skin
